Several values for one entry are separate records, joined by “and”; a condition that tells them apart may be missing. Identical values can stand only once. Like-named read-outs stand apart in the source and are kept apart here.
Columns and labels:
[1] = system: human osteosarcoma cell line SJSA-1; experiment: Inhibition of proliferation of human osteosarcoma cell line SJSA-1 (DAPI staining, In Cell Analyzer); conditions: Homo sapiens, SJSA-1, 72 h, read-out: IC50 (nM), inhibitory activity on proliferation of human osteosarcoma cell line SJSA-1, SJSA-1, incubated 72 h
[2] = Pharmacokinetics in ICR mice after intravenous and intragastric administration; type: in vivo; conditions: for MRT last: read-out: MRT(0-t); for MRT inf: read-out: MRT(0-∞); for Vd: read-out: Vz
Outline: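 Compounds were dissolved at 0.5 mg/ml in DMSO/PEG400/HP-β-CD saline vehicle and given to overnight-fasted male ICR mice, 2 mg/kg by vein or 5 mg/kg by gavage (n=3 each). Plasma was then protein-precipitated, assayed by LC-MS/MS, and PK parameters including oral bioavailability were derived.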

MDM2 = target: T1, MDM2 (Homo sapiens, UniProt Q00987); experiment: Inhibition test of MDM2-P53 (GST-MDM2, Biotin-P53, Anti-GST-Tb, SA-XL665); type: binding
T1 construct: made in house
Outline: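 Binding was measured by TR-FRET with GST-MDM2 at 4 nM final in PBS with 0.1% BSA, 5 mM DTT and 1 mM AEBSF. Compounds were tested as twelve-point 5-fold dilutions and incubated with the detection mix for 90 min at 25 °C with shaking before plate-reader reading and curve fitting.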

[3] = ICR mice, IV 2 mg/kg, individual animal, 2 mg/kg
[4] = ICR mice, PO 5 mg/kg, individual animal, 5 mg/kg
[5] = male, ICR, mouse, plasma, iv, 2 mg/kg, ICR mice, IV 2 mg/kg, individual animal
[6] = male, ICR, mouse, plasma, iv, 2 mg/kg, ICR mice, IV 2 mg/kg, mean of 3 animals
[7] = male, ICR, mouse, plasma, po, 5 mg/kg, ICR mice, PO 5 mg/kg, individual animal
[8] = male, ICR, mouse, plasma, po, 5 mg/kg, ICR mice, PO 5 mg/kg, mean of 3 animals

T1 sequence (Q00987 whole entry): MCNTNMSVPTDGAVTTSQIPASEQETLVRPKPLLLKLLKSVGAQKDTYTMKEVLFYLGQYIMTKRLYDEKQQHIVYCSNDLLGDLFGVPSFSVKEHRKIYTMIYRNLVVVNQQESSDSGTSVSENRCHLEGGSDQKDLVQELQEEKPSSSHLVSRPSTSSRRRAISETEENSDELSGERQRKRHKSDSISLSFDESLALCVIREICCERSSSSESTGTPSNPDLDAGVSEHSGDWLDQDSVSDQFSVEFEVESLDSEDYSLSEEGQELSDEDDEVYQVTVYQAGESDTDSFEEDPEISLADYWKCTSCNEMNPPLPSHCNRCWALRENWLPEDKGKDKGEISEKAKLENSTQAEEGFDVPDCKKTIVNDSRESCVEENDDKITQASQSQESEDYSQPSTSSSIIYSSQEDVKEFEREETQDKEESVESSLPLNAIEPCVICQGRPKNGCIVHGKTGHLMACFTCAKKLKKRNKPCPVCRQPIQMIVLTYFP

What does the source list for `COc1ncc(-c2nc3c(n2C(C)C)[C@@]2(C(=O)Nc4cc(Cl)ccc42)N(c2cc(Cl)ccc2F)C3=O)c(OC)n1` [Example S-44, (S)-6-chloro-5′-(5-chloro-2-fluorophenyl)-2′-(2,4-dimethoxypyrimidin-5-yl)-3′-isopropyl-3′H-spiro[dihydroindole-3,4′-pyrrolo[3,4-d]imidazole]-2,6′(5′H)-dione]?
IC50 [1]: 11.9 nM; AUC(0-t) [2, 3]: 2703.63 ng·h/mL and 2987.84 ng·h/mL; AUC(0-∞) [2, 3]: 3052.47 ng·h/mL and 3364.67 ng·h/mL; CL [2, 3]: 10.92 mL/min/kg and 9.91 mL/min/kg; Cmax [2, 3]: 826.58 ng/mL and 951.21 ng/mL; MRT(0-t) [2, 3]: 1.82 h; MRT(0-∞) [2, 3]: 2.61 h and 2.56 h; Vz [2, 3]: 1.82 L/kg and 1.64 L/kg; t1/2 [2, 3]: 1.92 h and 1.91 h; AUC(0-t) [2, 4]: 5161.46 ng·h/mL and 6287.89 ng·h/mL; AUC(0-∞) [2, 4]: 5447.83 ng·h/mL and 6556.64 ng·h/mL; Cmax [2, 4]: 1097.85 ng/mL and 1204.30 ng/mL; MRT(0-t) [2, 4]: 2.81 h and 3.08 h; MRT(0-∞) [2, 4]: 3.22 h and 3.38 h; Tmax [2, 4]: 2.00 h; t1/2 [2, 4]: 1.77 h and 1.65 h; AUC(0-inf) [2, 5]: 2770 ng·h/mL; clearance [2, 5]: 12.1 mL/min/kg; AUC(0-t) ([2]; male, ICR, mouse, plasma, iv, 2 mg/kg, ICR mice, IV 2 mg/kg, individual animal, read-out: AUC(0-t)): 2510 ng·h/mL; Cmax ([2]; male, ICR, mouse, plasma, iv, 2 mg/kg, ICR mice, IV 2 mg/kg, individual animal, read-out: Cmax): 872 ng/mL; MRT last [2, 5]: 1.71 h; MRT inf [2, 5]: 2.35 h; Tmax ([2]; male, ICR, mouse, plasma, iv, 2 mg/kg, ICR mice, IV 2 mg/kg, individual animal, read-out: Tmax): 0.08 h; Vd [2, 5]: 1.86 L/kg; half-life ([2]; male, ICR, mouse, plasma, iv, 2 mg/kg, ICR mice, IV 2 mg/kg, individual animal, read-out: t1/2 (converted)): 1.79 h; AUC(0-inf) [2, 6]: 3060 ng·h/mL; clearance [2, 6]: 11 mL/min/kg; AUC(0-t) ([2]; male, ICR, mouse, plasma, iv, 2 mg/kg, ICR mice, IV 2 mg/kg, mean of 3 animals, read-out: AUC(0-t)): 2730 ng·h/mL; Cmax ([2]; male, ICR, mouse, plasma, iv, 2 mg/kg, ICR mice, IV 2 mg/kg, mean of 3 animals, read-out: Cmax): 883 ng/mL; MRT last [2, 6]: 1.77 h; MRT inf [2, 6]: 2.51 h; Tmax ([2]; male, ICR, mouse, plasma, iv, 2 mg/kg, ICR mice, IV 2 mg/kg, mean of 3 animals, read-out: Tmax): 0.083 h; Vd [2, 6]: 1.77 L/kg; half-life ([2]; male, ICR, mouse, plasma, iv, 2 mg/kg, ICR mice, IV 2 mg/kg, mean of 3 animals, read-out: t1/2 (converted)): 1.87 h; AUC(0-inf) [2, 7]: 8960 ng·h/mL; AUC(0-t) ([2]; male, ICR, mouse, plasma, po, 5 mg/kg, ICR mice, PO 5 mg/kg, individual animal, read-out: AUC(0-t)): 7900 ng·h/mL; Cmax ([2]; male, ICR, mouse, plasma, po, 5 mg/kg, ICR mice, PO 5 mg/kg, individual animal, read-out: Cmax): 1360 ng/mL; MRT last [2, 7]: 3.17 h; MRT inf [2, 7]: 4.17 h; Tmax ([2]; male, ICR, mouse, plasma, po, 5 mg/kg, ICR mice, PO 5 mg/kg, individual animal, read-out: Tmax): 1 h; half-life ([2]; male, ICR, mouse, plasma, po, 5 mg/kg, ICR mice, PO 5 mg/kg, individual animal, read-out: t1/2 (converted)): 2.56 h; AUC(0-inf) [2, 8]: 6990 ng·h/mL; AUC(0-t) ([2]; male, ICR, mouse, plasma, po, 5 mg/kg, ICR mice, PO 5 mg/kg, mean of 3 animals, read-out: AUC(0-t)): 6450 ng·h/mL; Cmax ([2]; male, ICR, mouse, plasma, po, 5 mg/kg, ICR mice, PO 5 mg/kg, mean of 3 animals, read-out: Cmax): 1220 ng/mL; MRT last [2, 8]: 3.02 h; MRT inf [2, 8]: 3.59 h; Tmax ([2]; male, ICR, mouse, plasma, po, 5 mg/kg, ICR mice, PO 5 mg/kg, mean of 3 animals, read-out: Tmax): 1.33 h; half-life ([2]; male, ICR, mouse, plasma, po, 5 mg/kg, ICR mice, PO 5 mg/kg, mean of 3 animals, read-out: t1/2 (converted)): 2 h; AUC(0-t) ([2]; male, ICR, mouse, plasma, po, 5 mg/kg, oral intragastric administration 5 mg/kg, read-out: AUC0-t): 6450 ng·h/mL; half-life ([2]; male, ICR, mouse, plasma, po, 5 mg/kg, oral intragastric administration 5 mg/kg, read-out: half-life (converted)): 2 h; bioavailability ([2]; male, ICR, mouse, plasma, oral intragastric administration 5 mg/kg, read-out: bioavailability): 94.4%; bioavailability ([2]; male, mouse, plasma, ICR mice, PO 5 mg/kg vs IV 2 mg/kg, from mean values, read-out: F* (bioavailability)): 94.4%; IC50 (MDM2): 1.18 nM

Source: US11339171B2, “MDM2 inhibitors” (Gan & Lee Pharmaceuticals, priority 2017, dated 2022)
